# Source: patent publication US20130315982A1, “LIPOSOMAL DRUG COMPOSITION CONTAINING A POLYMERIC GUANIDINE DERIVATIVE” (MINDINVEST HOLDINGS LTD., priority 2010, published 2013)
# System: tumor cells
# Assay: Resistance study with 30 passages
# Format: cell-based
# Text: It has been shown that the problem can be solved by encapsulation of the polymeric guanidine derivate in PEGylated liposomes, which ensures that the drug substance reaches its target in higher concentrations, e.g. the malignant tumor cells. […] The commonly known cytostatics induce such cellular resistance mechanisms requiring higher, toxic doses, which cause severe side effects.
substance,measurement,value
poly-[2-(2-ethoxyethoxyethyl)guanidinium hydrochloride] [API],reduction of activity (induction of resistance),no reduction of activity
